“Also recorded” adds a separate entry of the source.
Key:
[1] = system: kappa3 opioid receptor; test: Effect of antisense treatment on kappa3 analgesic activity (tailflick assay); assay type: in vivo; conditions: mice, 5 μg oligodeoxynucleotide intracerebroventricular on days 1, 3 and 5, quantal tailflick 15 min after drug; for Effect on analgesic response to NalBzoH: NalBzoH 15 μg on day 6; for Effect on analgesic response to morphine: morphine 1 μg on day 6
[2] = system: kappa3 receptors; conditions: cited from earlier work

## sense strand: complementary sense strand to the antisense oligodeoxynucleotide (5′-CCCGACACGTCTTCGC-GTCT-3′) (SEQ ID NO:4) (sense CCCGACACGTCTTCGCGTCT; DNA, backbone and methylation of C not given here)
[1]
  Effect on analgesic response to NalBzoH: lack of activity
[1]; listed as sense
  Effect on analgesic response to NalBzoH: unaffected

## Oc1ccc2c3c1O[C@H]1c4[nH]c5c(c4C[C@@]4(O)[C@@H](C2)N(CC2CC2)CC[C@]314)C[C@@]1(O)[C@H]2Cc3ccc(O)c4c3[C@@]1(CCN2CC1CC1)[C@H]5O4 [nor-binaltorphimine]
[2]
  Binding to kappa3 receptors: do not bind U50,488H or nor-binaltorphimine very well

## antisense: anti-sense to the kappa3 clone (5′-GGGCTGTGCAGAAGCGCAGA-3′)(SEQ ID NO:3) (DNA, backbone and methylation of C not given here)
[1]
  Effect on analgesic response to NalBzoH: markedly lowered; also recorded: markedly reduced
  Effect on analgesic response to morphine: without interfering
[1]; listed as anti-sense
  Effect on analgesic response to morphine: unaffected

## mismatched antisense: mismatched antisense in which two base pairs had been switched (5′-GGGTCGTGCAGAGACGCAGA-3′) (SEQ ID NO:5) (DNA, backbone and methylation of C not given here)
[1]
  Effect on analgesic response to NalBzoH: unaffected
[1]; listed as mismatched antisense probe
  Effect on analgesic response to NalBzoH: lack of activity
